Active and inactive are the calls of the source. No cut-off for these calls is given here.
Key:
[1] = molecular target: T1, Tyrosinase (Agaricus bisporus, UniProt O42713)
T1 sequence (O42713 whole entry): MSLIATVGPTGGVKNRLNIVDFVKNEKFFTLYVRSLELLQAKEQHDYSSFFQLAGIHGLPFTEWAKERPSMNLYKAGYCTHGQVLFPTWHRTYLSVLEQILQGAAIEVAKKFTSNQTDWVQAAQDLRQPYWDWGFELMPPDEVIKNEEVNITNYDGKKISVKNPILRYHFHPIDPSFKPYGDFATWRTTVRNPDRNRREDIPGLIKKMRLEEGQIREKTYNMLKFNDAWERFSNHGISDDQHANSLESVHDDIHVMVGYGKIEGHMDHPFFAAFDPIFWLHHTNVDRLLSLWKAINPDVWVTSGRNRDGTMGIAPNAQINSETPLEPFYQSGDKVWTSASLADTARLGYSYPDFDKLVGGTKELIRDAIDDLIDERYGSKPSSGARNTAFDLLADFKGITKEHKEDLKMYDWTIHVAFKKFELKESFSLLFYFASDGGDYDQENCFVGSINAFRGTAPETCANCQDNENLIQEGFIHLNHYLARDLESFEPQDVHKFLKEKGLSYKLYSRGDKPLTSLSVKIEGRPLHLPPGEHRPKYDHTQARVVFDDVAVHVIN
Description: Inhibition of mushroom tyrosinase assessed as reduction in L-DOPA oxidase activity using L-DOPA substrate

[2] = molecular target: T2, Tyrosinase (Agaricus bisporus) (UniProt O42713); assay: Competitive inhibition of mushroom tyrosinase assessed as reduction in L-DOPA oxidase activity at 0.15 mM to 0.6 mM using L-DOPA substrate by Lineweaver-Burk plot
T2 sequence (whole entry): T1 sequence (O42713 whole entry)

[3] = molecular target: T1, Tyrosinase; remark: listed apart in the source
Description: Inhibition of mushroom tyrosinase assessed as reduction in L-DOPA oxidase activity using L-DOPA substrate at 5 uM by Dixon plot

Row | Structure (SMILES) | IC50 [1] [µM] | inhibition [2] | Ki [3] [µM]
1 | O/N=C(\C=C\c1cccnc1)c1cc2ccccc2cc1O | 12.2 | Active | 6.46
2 | COc1ccc(OC)c(/C=C/C(=N\O)c2cc3ccccc3cc2O)c1 | 21.9 | Active | 9.4
3 | COc1ccc(/C=C/C(=N\O)c2cc3ccccc3cc2O)cc1OC | 42.3 | Active | 22.9
4 | COc1cc(/C=C/C(=N\O)c2cc3ccccc3cc2O)cc(OC)c1 | 52.9 | Active | 28.6
5 | O/N=C(\C=C\c1ccncc1)c1cc2ccccc2cc1O | 19.5 | Active | 7.82
6 | O/N=C(\C=C\c1ccccn1)c1cc2ccccc2cc1O | 20.2 | Active | 11.1
7 | COc1ccc(/C=C/C(=N\O)c2cc3ccccc3cc2O)c(OC)c1 | 23 | Active | 10.6

Reference: ChEMBL document CHEMBL3616396, “Integrated kinetic studies and computational analysis on naphthyl chalcones as mushroom tyrosinase inhibitors” (Bioorg Med Chem Lett, 2015)
